In the CheMixHub ionic liquid set:

Experiment: xn = mol fraction of the nth substance listed
Conditions: 100 kPa

CCCCCC[n+]1ccn(C)c1.O=[N+]([O-])[O-] + CC(C)O
viscosity [mPa·s]
Conditions	293.15 K	298.15 K	303.15 K	308.15 K	313.15 K	318.15 K	323.15 K
x1 = 0.0817	6.79	5	3.85	2.97	2.39	2.01	1.65
x1 = 0.1594	16	11.18	7.97	5.99	4.67	3.68	2.88
x1 = 0.2402	32	23	17	12.69	9.5	7.25	5.63
x1 = 0.3493	66	47.7	34	26.9	21	16.7	12.75
x1 = 0.4408	111	79.5	55.4	43.2	34.4	27.2	21.3
x1 = 0.5609	187	136.6	91	70	55.8	43.5	34
x1 = 0.6502	266	193	122.4	94.1	74.7	58.3	44.5
x1 = 0.7417	363	265	164.3	123.7	96	75.4	58
x1 = 0.8518	505	372	232	168.8	128.2	101.2	78.6
x1 = 0.9396	664	467	306	218	160.5	124	96.7
x1 = 1	804	545	369	258	186	140.2	110.9

CCCC[n+]1ccn(C)c1.O=[N+]([O-])[O-] + CC(C)O
Conditions	viscosity [mPa·s]
293.15 K, x1 = 0.1596	6.9
293.15 K, x1 = 0.6506	53
293.15 K, x1 = 0.7413	70
298.15 K, x1 = 0.1596	6
298.15 K, x1 = 0.2405	9.3
298.15 K, x1 = 0.7413	56
298.15 K, x1 = 0.8515	82
303.15 K, x1 = 0.1596	5.2
303.15 K, x1 = 0.8515	63
303.15 K, x1 = 0.9396	90
308.15 K, x1 = 0.2405	6.6
308.15 K, x1 = 0.8515	51
308.15 K, x1 = 0.9396	72
308.15 K, x1 = 1	97
313.15 K, x1 = 0.3495	9
313.15 K, x1 = 0.9396	59
313.15 K, x1 = 1	75
318.15 K, x1 = 0.2405	5.2
318.15 K, x1 = 0.3495	7.9
318.15 K, x1 = 1	56
323.15 K, x1 = 0.3495	7.2

CC[n+]1ccn(CCOC)c1.N#C[S-] + CC(C)O
viscosity [mPa·s]
Conditions	x1 = 0.1	x1 = 0.1998	x1 = 0.3234	x1 = 0.3998	x1 = 0.5003	x1 = 0.6	x1 = 0.697	x1 = 0.8002	x1 = 0.8991	x1 = 1
288.15 K	4.25	6.2	10.24	15.05	19.9	28.1	38.6	54.1	72.5	93.1
293.15 K	3.66	5.32	8.77	12.96	16.8	23	31.1	42.7	56.8	70.8
298.15 K	3.18	4.62	7.6	11.21	14.12	19.3	25.7	34.4	45	55.8
303.15 K	2.79	4.05	6.64	9.42	11.99	16.48	21.6	28.2	36.3	44.3
308.15 K	2.45	3.58	5.82	8.25	10.28	14.1	18.7	23.5	29.9	36
313.15 K	2.17	3.18	5.17	7.23	8.91	12.18	15.97	19.8	24.9	29.7
318.15 K	1.93	2.84	4.6	6.27	7.78	10.62	13.55	17.18	21.1	24.9

CC[n+]1ccn(C)c1.F[P-](F)(F)(F)(F)F + CC(C)[C@H](N)C(=O)O + O
Conditions	electrical conductivity, 298.15 K [S/m]	electrical conductivity, 303.15 K [S/m]	electrical conductivity, 308.15 K [S/m]	viscosity, 298.15 K [mPa·s]	viscosity, 303.15 K [mPa·s]	viscosity, 308.15 K [mPa·s]
x2 = 0.0001802, x1 = 1.802e-05	0.0115	0.0132	0.0158	0.924	0.855	0.783
x2 = 0.0001803, x1 = 5.405e-05	0.0309	0.0338	0.0369	0.939	0.861	0.788
x2 = 0.0001804, x1 = 9.008e-05	0.0452	0.0507	0.0552	0.954	0.865	0.792
x2 = 0.0004522, x1 = 1.801e-05	0.0121	0.0136	0.0156	0.93	0.862	0.79
x2 = 0.0004524, x1 = 5.403e-05	0.0301	0.0329	0.0366	0.946	0.868	0.795
x2 = 0.0004526, x1 = 9.005e-05	0.046	0.0507	0.0551	0.963	0.876	0.801
x2 = 0.0007258, x1 = 1.801e-05	0.0124	0.0141	0.016	0.936	0.869	0.797
x2 = 0.0007262, x1 = 5.402e-05	0.0308	0.0336	0.0361	0.953	0.875	0.802
x2 = 0.0007265, x1 = 9.003e-05	0.0494	0.0548	0.0593	0.97	0.884	0.808
x2 = 0.0009976, x1 = 1.8e-05	0.0136	0.015	0.0177	0.942	0.876	0.803
x2 = 0.000998, x1 = 5.4e-05	0.0304	0.0333	0.0354	0.96	0.883	0.811
x2 = 0.0009985, x1 = 9e-05	0.0457	0.051	0.0553	0.979	0.893	0.818
x2 = 0.001273, x1 = 1.8e-05	0.0147	0.0167	0.0199	0.948	0.882	0.811
x2 = 0.001273, x1 = 5.399e-05	0.0323	0.0341	0.0377	0.969	0.89	0.819
x2 = 0.001274, x1 = 8.998e-05	0.0487	0.0538	0.0594	0.988	0.899	0.826
x2 = 0.001546, x1 = 1.799e-05	0.0161	0.0182	0.0218	0.954	0.888	0.818
x2 = 0.001547, x1 = 5.397e-05	0.0327	0.0343	0.0383	0.976	0.897	0.827
x2 = 0.001547, x1 = 8.995e-05	0.0455	0.0512	0.0549	0.996	0.908	0.833
